Experimental data taken from patent US20250101041A1, “POSITIVE ALLOSTERIC MODULATORS OF THE MUSCARINIC ACETYLCHOLINE RECEPTOR M4” (Vanderbilt University, priority 2022, published 2025).
pEC50: −log10 of the molar value.

Target: T1, human mAChR M4 (Homo sapiens, UniProt P08173)
T1 construct: expressed in transfected cells; host or cells: CHO-K1 (American Type Culture Collection), stably expressing hM4 and Gqi5
T1 sequence (P08173 1-479): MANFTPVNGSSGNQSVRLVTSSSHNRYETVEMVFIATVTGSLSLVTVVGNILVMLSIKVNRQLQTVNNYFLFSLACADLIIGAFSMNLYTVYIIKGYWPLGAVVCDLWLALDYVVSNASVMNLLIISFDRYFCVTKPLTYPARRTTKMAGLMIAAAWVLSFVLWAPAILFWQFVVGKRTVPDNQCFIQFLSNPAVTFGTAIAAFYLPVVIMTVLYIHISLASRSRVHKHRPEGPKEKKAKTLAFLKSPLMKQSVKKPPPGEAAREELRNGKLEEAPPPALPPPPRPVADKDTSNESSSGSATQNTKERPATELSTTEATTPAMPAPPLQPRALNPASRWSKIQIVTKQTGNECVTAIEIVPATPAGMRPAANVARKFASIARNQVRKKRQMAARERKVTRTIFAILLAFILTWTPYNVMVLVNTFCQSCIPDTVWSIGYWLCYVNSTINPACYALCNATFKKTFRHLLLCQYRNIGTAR
Experiment: mAChR M4 cell-based functional assay: calcium mobilization (Fluo-4, FDSS), potentiation of EC20 acetylcholine response in hM4-Gqi5 CHO-K1 cells
Conditions: human M4; for Emax at 30 µM: CHO-K1, % ACh maximum at 30 μM; for pEC50: potentiation of EC20 acetylcholine response, calcium mobilization
Method in brief: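 CHO-K1 cells stably co-expressing human M4 and chimeric Gqi5, loaded with Fluo-4 AM (50 min, 37 °C). Compounds in 11-point 1:3 series added first; EC20 acetylcholine added at 144 s and again at 230 s. Calcium read on FDSS at 1 Hz; EC50 and Emax from four-parameter logistic fit of potentiated EC20 response.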

| Structure (SMILES) | Emax at 30 µM | pEC50 |
| --- | --- | --- |
| Cc1cc2nccc(=O)n2nc1N1CCc2ncc(NCc3cncn3C)cc2C1 [Compound 2-131, 8-methyl-7-(3-(((1-methyl-1H-imidazol-5-yl)methyl)amino)-7,8-dihydro-1,6-naphthyridin-6(5H)-yl)-4H-pyrimido[1,2-b]pyridazin-4-one] | 73% | 5.55 |
| Cc1cc(=O)n2nc(N3CCc4ncc(-c5ccccc5C(F)(F)F)cc4C3)c(C)cc2n1 [Compound 1-255, 2,8-dimethyl-7-(3-(2-(trifluoromethyl)phenyl)-7,8-dihydro-1,6-naphthyridin-6(5H)-yl)-4H-pyrimido[1,2-b] pyridazin-4-one] | 60% | 5.63 |
| Cc1cc(=O)n2nc(N3CCc4ncc(-c5ccc(C6CC6)nc5)cc4C3)c(C)c(C)c2n1 [Compound 1-128, 7-(3-(6-cyclopropylpyridin-3-yl)-7,8-dihydro-1,6-naphthyridin-6(5H)-yl)-2,8,9-trimethyl-4H-pyrimido[1,2-b]pyridazin-4-one] | 80% | 6.11 |
| Cc1cc2nccc(=O)n2nc1N1CCc2ncc(NS(=O)(=O)C3CC3)cc2C1 [Compound 2-118, N-(6-(8-methyl-4-oxo-4H-pyrimido[1,2-b]pyridazin-7-yl)-5,6,7,8-tetrahydro-1,6-naphthyridin-3-yl)cyclopropanesulfonamide] | 48% | 5.52 |
| Cc1c(N2CCc3ncc(-c4cncc(C(F)(F)F)c4)cc3C2)nn2c(=O)ccnc2c1C [Compound 1-102, 8,9-dimethyl-7-(3-(5-(trifluoromethyl)pyridin-3-yl)-7,8-dihydro-1,6-naphthyridin-6(5H)-yl)-4H-pyrimido[1,2-b]pyridazin-4-one] | 83% | 6.13 |
| Cc1c(N2CCc3ncc(N4CC(C)(C)CC4=O)cc3C2)nn2c(=O)ccnc2c1C [Compound 2-145, 7-(3-(4,4-dimethyl-2-oxopyrrolidin-1-yl)-7,8-dihydro-1,6-naphthyridin-6(5H)-yl)-8,9-dimethyl-4H-pyrimido[1,2-b]pyridazin-4-one] | 68% | 5.76 |
| Cc1cc2nccc(=O)n2nc1N1CCc2ncc(N3c4ccc(F)cc4OCC3C)cc2C1 (stereo not drawn) [Compound 2-52, 7-(3-(7-fluoro-3-methyl-2,3-dihydro-4H-benzo[b][1,4]oxazin-4-yl)-7,8-dihydro-1,6-naphthyridin-6(5H)-yl)-8-methyl-4H-pyrimido[1,2-b]pyridazin-4-one] | 89% | 7.80 |
| Cc1ccc(F)cc1-c1cnc2c(c1)CN(c1nn3c(=O)cc(C(F)F)nc3c(C)c1C)CC2 [Compound 1-171, 2-(difluoromethyl)-7-(3-(5-fluoro-2-methylphenyl)-7,8-dihydro-1,6-naphthyridin-6(5H)-yl)-8,9-dimethyl-4H-pyrimido[1,2-b]pyridazin-4-one] | 91% | 6.37 |
| Cc1cc2nccc(=O)n2nc1N1CCc2ncc(-c3ccc(F)c(Cl)c3)cc2C1 [Compound 1-59, 7-(3-(3-chloro-4-fluorophenyl)-7,8-dihydro-1,6-naphthyridin-6(5H)-yl)-8-methyl-4H-pyrimido[1,2-b]pyridazin-4-one] | 99% | 6.61 |
| Cc1c(N2CCc3ncc(P(C)(C)=O)cc3C2)nn2c(=O)ccnc2c1C [Compound 3-5, 7-(3-(Dimethylphosphoryl)-7,8-dihydro-1,6-naphthyridin-6(5H)-yl)-8,9-dimethyl-4H-pyrimido[1,2-b]pyridazin-4-one] | 77% | – |
| Cc1cc2nccc(=O)n2nc1N1CCc2ncc(Nc3cc(F)nc(F)c3)cc2C1 [Compound 2-100, 7-(3-((2,6-difluoropyridin-4-yl)amino)-7,8-dihydro-1,6-naphthyridin-6(5H)-yl)-8-methyl-4H-pyrimido[1,2-b]pyridazin-4-one] | 101% | 7.41 |
| Cc1cc2nc(C(C)(C)O)cc(=O)n2nc1N1CCc2ncc(C(F)(F)F)cc2C1 [Compound 1-195, 2-(2-hydroxypropan-2-yl)-8-methyl-7-(3-(trifluoromethyl)-7,8-dihydro-1,6-naphthyridin-6(5H)-yl)-4H-pyrimido[1,2-b] pyridazin-4-one] | 82% | 6.73 |
| Cc1cc2ncc(Cl)c(=O)n2nc1N1CCc2ncc(-c3cn(C)nc3C)cc2C1 [Compound 1-11, 3-chloro-7-(3-(1,3-dimethyl-1H-pyrazol-4-yl)-7,8-dihydro-1,6-naphthyridin-6(5H)-yl)-8-methyl-4H-pyrimido[1,2-b]pyridazin-4-one] | 92% | 6.80 |
| Cc1cc2nccc(=O)n2nc1N1CCc2ncc(-c3ccccc3C(C)C)cc2C1 [Compound 1-439, 7-(3-(2-isopropylphenyl)-7,8-dihydro-1,6-naphthyridin-6(5H)-yl)-8-methyl-4H-pyrimido [1,2-b]pyridazin-4-one] | 22% | 5.91 |
| Cc1cnccc1Nc1cnc2c(c1)CN(c1nn3c(=O)ccnc3cc1C)CC2 [Compound 2-102, 8-methyl-7-(3-((3-methylpyridin-4-yl)amino)-7,8-dihydro-1,6-naphthyridin-6(5H)-yl)-4H-pyrimido[1,2-b]pyridazin-4-one] | 84% | 6.23 |
| Cc1c(N2CCc3ncc(N4CCO[C@H](C)C4)cc3C2)nn2c(=O)ccnc2c1C [Compound 2-32, (R)-8,9-dimethyl-7-(3-(2-methylmorpholino)-7,8-dihydro-1,6-naphthyridin-6(5H)-yl)-4H-pyrimido[1,2-b]pyridazin-4-one] | 94% | 7.08 |
| Cc1cc2nccc(=O)n2nc1N1CCc2ncc(-c3c(C)nn(C)c3C)cc2C1 [Compound 1-424, 8-methyl-7-(3-(1,3,5-trimethyl-1H-pyrazol-4-yl)-7,8-dihydro-1,6-naphthyridin-6(5H)-yl)-4H-pyrimido[1,2-b] pyridazin-4-one] | 84% | 6.13 |
| COCc1c(N2CCc3ncc(C(F)(F)F)cc3C2)nn2c(=O)ccnc2c1C [Compound 1-270, 8-(methoxymethyl)-9-methyl-7-(3-(trifluoromethyl)-7,8-dihydro-1,6-naphthyridin-6(5H)-yl)-4H-pyrimido[1,2-b]pyridazin-4-one] | 95% | 7.48 |
| Cc1cc(=O)n2nc(N3CCc4ncc(-c5ccnn5C5COC5)cc4C3)c(C)c(C)c2n1 [Compound 1-176, 2,8,9-trimethyl-7-(3-(1-(oxetan-3-yl)-1H-pyrazol-5-yl)-7,8-dihydro-1,6-naphthyridin-6(5H)-yl)-4H-pyrimido[1,2-b]pyridazin-4-one] | 74% | 5.32 |
| Cc1ccc(-c2cnc3c(c2)CN(c2nn4c(=O)c(C)cnc4cc2C)CC3)cn1 [Compound 1-86, 3,8-dimethyl-7-(3-(6-methylpyridin-3-yl)-7,8-dihydro-1,6-naphthyridin-6(5H)-yl)-4H-pyrimido[1,2-b]pyridazin-4-one] | 94% | 6.61 |
| Cc1cc(=O)n2nc(N3CCc4ncc(-c5ccccc5OC(C)C)cc4C3)c(C)c(C)c2n1 [Compound 1-280, 7-(3-(2-isopropoxyphenyl)-7,8-dihydro-1,6-naphthyridin-6(5H)-yl)-2,8,9-trimethyl-4H-pyrimido[1,2-b]pyridazin-4-one] | 52% | 6.53 |
| Cc1cc(=O)n2nc(N3CCc4ncc(N5CCOc6ncccc65)cc4C3)c(C)cc2n1 [Compound 2-17, 7-(3-(2,3-dihydro-1H-pyrido[2,3-b][1,4]oxazin-1-yl)-7,8-dihydro-1,6-naphthyridin-6(5H)-yl)-2,8-dimethyl-4H-pyrimido[1,2-b]pyridazin-4-one] | 98% | 8.05 |
| COCc1cc(=O)n2nc(N3CCc4ncc(-c5cc(F)c(F)cc5F)cc4C3)c(C)cc2n1 [Compound 1-335, 2-(methoxymethyl)-8-methyl-7-(3-(2,4,5-trifluorophenyl)-7,8-dihydro-1,6-naphthyridin-6(5H)-yl)-4H-pyrimido[1,2-b]pyridazin-4-one] | 68% | 6.24 |
| Cc1cc(-c2cnc3c(c2)CN(c2nn4c(=O)cc(C)nc4cc2C)CC3)ccn1 [Compound 1-239, 2,8-dimethyl-7-(3-(2-methylpyridin-4-yl)-7,8-dihydro-1,6-naphthyridin-6(5H)-yl)-4H-pyrimido[1,2-b] pyridazin-4-one] | 78% | 7.01 |
| Cc1cc(=O)n2nc(N3CCc4ncc(N5CCOC(c6cccnc6)C5)cc4C3)c(C)c(C)c2n1 (stereo not drawn) [Compound 2-49, 2,8,9-trimethyl-7-(3-(2-(pyridin-3-yl)morpholino)-7,8-dihydro-1,6-naphthyridin-6(5H)-yl)-4H-pyrimido[1,2-b]pyridazin-4-one] | 75% | 5.92 |
| Cc1cc2nccc(=O)n2nc1N1CCc2ncc(-c3cccc(C)c3C)cc2C1 [Compound 1-442, 7-(3-(2,3-dimethylphenyl)-7,8-dihydro-1,6-naphthyridin-6(5H)-yl)-8-methyl-4H-pyrimido [1,2-b]pyridazin-4-one] | 86% | 6.39 |
